Tested on: Rhynchophorus palmarum
Assay: Field trapping study of Rhynchophorus palmarum control in palm tree groves (baited traps, 1 month, French Guiana)
Assay type: in vivo
Details: second (last) Total capture column; period not printed separately (study dates March-May 1997); total insects in all traps with the same test substance
From the text: Study of Rhynchophorus palmarum Control in Palm Tree Groves
This experiment was designed to assess the control of Rhynchophorus palmarum control in ornamental, palm trees and in coconut palms according to the characteristics indicated hereunder.
Insect species against which the experiment was designed: Rhynchophorus palmarum, Coleoptera curculionidae, Rhynchophorinae.
Testing area: Cayenne—Remire Montjoly, French Guiana.
Plants: Ornamental palm tree groves and coconut palms.
Substances tested: • (a) Vegetal bait (sugar cane in 25 cm lengths cut lengthwise through the middle and fermented during 24 hours at 28° C., and Rhynchophorol (synthetic feromone) • (b) INIA 1 composition and Rhynchophorol. • (c) INIA 2 composition and Rhynchophorol. • (c) INIA 3 composition and Rhynchophorol. • (e) Reference specimen (only Rhynchophorol).
A randomly selected “double blind” test was repeated 4 times in traps installed over trash cans modified to include spreaders comprising a supporting agent capable of absorbing/adsorbing and releasing the compositions to be tested and designed to emit said compositions.
The vegetal bait, namely cut-up cane, was arranged in a bundle on the bottom of the trap can. Feromone (Rhynchophorol) was released from small hermetic plastic 200 μm envelopes loaded with 0.2 cm^3 of synthetic feromone spreading a minimum of 2 mg/day through pores in the trap. […]

SMILES: C/C=C/C(O)CC(C)C (stereo not shown) [(e), Rhynchophorol]
- Total capture: 3

Reference: US6852327B1, “Composition attracting insects pertaining to the coleoptera family and use thereof in the control of plagues in palm-trees and related plants” (Instituto Nacional de Investigacion y Tecnologia Agraria y …, priority 1998, dated 2005)
